Like-named read-outs stand apart in the source and are kept apart here.
Key:
[1] = tested on: SARS-CoV-2 Wuhan type (SARS-CoV-2PR-1); experiment: SARS-CoV-2 replication in Vero B4 cells, virions in supernatant by qRT-PCR; assay type: cell-based; conditions: for IC50: MOI 2 × 10^−2
[2] = tested on: SARS-CoV-2 Wuhan type (SARS-CoV-2PR-1); experiment: SARS-CoV-2 replication in A549-ACE2+/TMPRSS2+ cells, qRT-PCR; assay type: cell-based; conditions: Severe acute respiratory syndrome coronavirus 2, 3 dpi
[3] = tested on: SARS-CoV-2 Wuhan type (SARS-CoV-2PR-1); experiment: SARS-CoV-2 replication in Caco-2 cells, qRT-PCR; assay type: cell-based; conditions: Severe acute respiratory syndrome coronavirus 2, 3 dpi
[4] = tested on: SARS-CoV-2 Wuhan type (SARS-CoV-2PR-1); experiment: SARS-CoV-2 replication in Calu-3 cells, qRT-PCR; assay type: cell-based; conditions: for IC50 / IC90: Severe acute respiratory syndrome coronavirus 2, Calu-3, Wuhan type, 3 dpi
[5] = tested on: SARS-CoV-2 Alpha; experiment: VoC replication in Calu-3 cells, qRT-PCR; assay type: cell-based; conditions: Severe acute respiratory syndrome coronavirus 2
[6] = tested on: SARS-CoV-2 Beta; experiment: VoC replication in Calu-3 cells, qRT-PCR; assay type: cell-based; conditions: Severe acute respiratory syndrome coronavirus 2
[7] = tested on: SARS-CoV-2 Gamma; experiment: VoC replication in Calu-3 cells, qRT-PCR; assay type: cell-based; conditions: Severe acute respiratory syndrome coronavirus 2
[8] = tested on: SARS-CoV-2 Delta; experiment: VoC replication in Calu-3 cells, qRT-PCR; assay type: cell-based; conditions: for IC50 / IC90: Severe acute respiratory syndrome coronavirus 2, […]
[9] = tested on: SARS-CoV-2 Omicron (SARS-CoV-2OM); experiment: VoC replication in Calu-3 cells, qRT-PCR; assay type: cell-based
[10] = tested on: SARS-CoV-2 Wuhan type; experiment: SARS-CoV-2 replication, summary over Vero B4, A549-ACE2+/TMPRSS2+, Caco-2 and Calu-3 cells, qRT-PCR; assay type: cell-based; conditions: for IC90: Severe acute respiratory syndrome coronavirus 2, Wuhan type, Vero B4, A549-ACE2+/TMPRSS2+, Caco-2, Calu-3, read-out: IC90 values, range among all investigated cell lines
[11] = tested on: SARS-CoV-2 VoCs Alpha, Beta, Gamma, Delta, and Omicron; experiment: VoC replication in Calu-3 cells, summary over all VoCs, qRT-PCR; assay type: cell-based; conditions: for IC90: Severe acute respiratory syndrome coronavirus 2, read-out: IC90, range over VoCs
[12] = tested on: SARS-CoV-2 Wuhan Type, Delta, or Omicron; experiment: Combination treatment in Calu-3 cells, summary over the three viruses, qRT-PCR; assay type: cell-based; conditions: single treatment
[13] = tested on: uninfected Vero B4, A549-ACE2/TMPRSS2+, Caco-2, or Calu-3 cells; experiment: WST-1 cell viability assay, all cell types; assay type: cell-based; conditions: three days
Protocol: (§1) To control for potential unspecific effects of PAM treatment on cell viability, water-soluble tetrazolium salt (WST)-1 assays were performed in uninfected Vero B4, A549-ACE2/TMPRSS2+, Caco-2, or Calu-3 cells under otherwise identical conditions as the virus infection experiments. […] Staurosporine (StS) was used as a positive control at a concentration of 1 µM. DMSO as a solvent control was added in the same amount as the respective highest concentration of PAM.
(§2) Following treatment with different concentrations of PAM (PAM concentrations are indicated at the x-axis) for three days, the influence on cell viability was measured by water-soluble tetrazolium salt (WST)-1 assay. […] Staurosprine (StS, 1 µM) was used as a positive control. DMSO as solvent control was added in the same amount as in the highest concentration of PAM (100 µM (A,B); 1000 µM (C,D)).
(§3) Viability of uninfected and treated cells was assessed by the water-soluble tetrazolium salt (WST)-1 assay (Roche, Basel, Switzerland) according to the manufacturer’s instructions. Cells were treated for 72 h with various inhibitors according to the protocols of the infection experiments.

[14] = tested on: Calu-3 cells; experiment: WST-1 cell viability assay; assay type: cell-based, human; conditions: uninfected Calu-3, three days
Protocol: as §1, §2, §3

[15] = tested on: SARS-CoV-2 Wuhan type (SARS-CoV-2PR-1); experiment: Quantitative immunofluorescence of SARS-CoV-2 nucleoprotein (NP) in infected Calu-3 cells; assay type: cell-based; conditions: 30 h treatment, increasing concentrations
Protocol: In addition, and to confirm the results obtained from the qRT-PCR analysis of the cell culture supernatants, Calu-3 cells were infected with the wildtype isolate SARS-CoV-2PR-1 at the same MOI (Figure 1) and subsequently treated with different concentrations of PAM for 30 h. Cells were fixed and further stained with a SARS-CoV-2 nucleoprotein (NP)-specific antibody. RDV was used as a positive control at 1 µM (Figure S1, see Supplementary Materials).
For immunostaining, infected Calu-3 cells were fixed with 4% PFA for 15 min. Following a washing step with PBS, cells were blocked and permeabilized overnight with 1% BSA in PBS (+0.2% Triton) and afterwards stained with a polyclonal rabbit anti-NP antibody (GeneTex, Cat. No. GTX135357, Irvine, CA, USA) for 24 h. […] For analysis, immunostaining was quantitative analyzed with a PerkinElmer VictorX4 reader (488 nm) (PerkinElmer, Waltham, MA, USA) and pictures were taken using a CTL-ELISPOT reader (Cellular Technology Ltd., Shaker Heights, OH, USA).
Figure S1. […] Quantitative immunofluorescent microscopy was performed to detect the viral nucleocapsid protein in Calu-3 cells 30 hrs post-infection with SARS-CoV-2 Wuhan type using an Alexa488-conjugated anti-SARS-CoV-2 nucleo-protein (NP)-antibody or DAPI as a control. […]

[16] = tested on: Caco-2 cells; experiment: WST-1 cell viability assay; conditions: uninfected Caco-2, three days
[17] = set-up: method as in PMID 34580086; conditions: use of Pio, after a COVID-19 diagnosis, cited from earlier work
[18] = tested on: SARS-CoV-2; conditions: Calu-3; published; cited from earlier work
[19] = tested on: SARS-CoV-2; conditions: Vero E6 cells; published; cited from earlier work
[20] = Severe acute respiratory syndrome coronavirus 2, Vero B4, Wuhan type, 3 dpi
[21] = Severe acute respiratory syndrome coronavirus 2, Calu-3
[22] = Severe acute respiratory syndrome coronavirus 2, Calu-3, Calu-3, […]

Compound	IC50 [1, 20]	IC50 [2]	IC50 [3]	inhibition at 0.05 µM [4, 21]	IC50 [4]	IC90 [4]	IC50 [5]	IC90 [5]	IC50 [6]	IC90 [6]	IC50 [7]	IC90 [7]	IC50 [8]	IC90 [8]	IC50 [9, 22]	IC90 [9, 22]	IC90 [10]	IC90 [11]	TD50 [14]	TD50 [16]	further results
Cn1c(=O)c(Oc2ccc(F)cc2F)cc2cnc(NC(CCO)CCO)nc21 [PAM, Pamapimod]	~200 nM	~200 nM	~250 nM	33.9%	~100 nM	~3000 nM	~250 nM	~3000 nM	~250 nM	~3000 nM	~250 nM	~3000 nM	~250 nM	~4000 nM	~250 nM	~2000 nM	2000 to 3000 nM	3000 to 4000 nM	~ 1000 µM	~ 1000 µM	IC90 ([1]; Severe acute respiratory syndrome coronavirus 2, Vero B4, Wuhan type, 3 dpi, read-out: IC90): ~2000 nM; IC90 [2]: ~2000 nM; IC90 [3]: ~3000 nM; inhibition at 0.01 µM [4, 21]: 10.5%; inhibition at 0.01 µM ([8]; Severe acute respiratory syndrome coronavirus 2, PAM 0.01 µM, Pio 0 µM, Fig 7D): 2.86%; inhibition at 0.05 µM ([8]; Severe acute respiratory syndrome coronavirus 2, PAM 0.05 µM, Pio 0 µM, Fig 7D): 27.6%; IC90 ([9]; Calu-3, […]): ~3000 nM; inhibition at 0.01 µM ([9]; Severe acute respiratory syndrome coronavirus 2, PAM 0.01 µM, Pio 0 µM, Calu-3, Fig 7F): 3.6%; inhibition at 0.05 µM ([9]; Severe acute respiratory syndrome coronavirus 2, PAM 0.05 µM, Pio 0 µM, Calu-3, Fig 7F): 28.6%; production of progeny virions ([10]; at a concentration of 6.25 µM, all infected cell lines): almost completely blocked; IC50 ([11]; Severe acute respiratory syndrome coronavirus 2): ~250 nM; reduction of virus replication, max. ([12]; 50 nM PAM, Figure 7B): ≤ 33%; impact on cell viability ([13]; concentrations up to 100 µg/mL): no impact on cell viability; SARS-CoV-2 replication within infected cells (NP staining normalized to DAPI) [15]: effectively suppressed SARS-CoV-2 replication in a dose-dependent manner
CCc1ccc(CCOc2ccc(CC3SC(=O)NC3=O)cc2)nc1 (centres unmarked) [Pio, Pioglitazone]	~500 nM	~1000 nM	~700 nM	15.9%	~800 nM	~10000 nM	~800 nM	~15000 nM	~900 nM	~15000 nM	~700 nM	~15000 nM	~500 nM	~12000 nM	~900 nM	~10000 nM	8000 to 10000 nM	12000 to 15000 nM	500 to 1000 µM	500 to 1000 µM	IC90 ([1]; Severe acute respiratory syndrome coronavirus 2, Vero): ~8000 nM; inhibition at 0.02 µM [4, 21]: 4.64%; inhibition at 0.1 µM [4, 21]: 36.9%; inhibition at 0.3 µM [4, 21]: 48.3%; inhibition at 0.02 µM ([8]; Severe acute respiratory syndrome coronavirus 2, PAM 0 µM, Pio 0.02 µM, Fig 7D): 0.48%; inhibition at 0.05 µM ([8]; Severe acute respiratory syndrome coronavirus 2, PAM 0 µM, Pio 0.05 µM, Fig 7D): 12.2%; inhibition at 0.1 µM ([8]; Severe acute respiratory syndrome coronavirus 2, PAM 0 µM, Pio 0.1 µM, Fig 7D): 32.4%; inhibition at 0.3 µM ([8]; Severe acute respiratory syndrome coronavirus 2, PAM 0 µM, Pio 0.3 µM, Fig 7D): 46.9%; IC50 ([9]; Calu-3, […]): ~700 nM; inhibition at 0.02 µM ([9]; Severe acute respiratory syndrome coronavirus 2, PAM 0 µM, Pio 0.02 µM, Calu-3, Fig 7F): 1.44%; inhibition at 0.05 µM ([9]; Severe acute respiratory syndrome coronavirus 2, PAM 0 µM, Pio 0.05 µM, Calu-3, Fig 7F): 12.2%; inhibition at 0.1 µM ([9]; Severe acute respiratory syndrome coronavirus 2, PAM 0 µM, Pio 0.1 µM, Calu-3, Fig 7F): 27.1%; inhibition at 0.3 µM ([9]; Severe acute respiratory syndrome coronavirus 2, PAM 0 µM, Pio 0.3 µM, Calu-3, Fig 7F): 44%; SARS-CoV-2 replication ([10]; at ~80 µM, all test settings): completely suppresses; reduction of viral replication, max. ([12]; 300 nM Pio, Figure 7D): ≤ 48%; impact on cell viability ([13]; concentrations up to ~80 µM): no impact on cell viability; hospital admissions ([17]; vs. 28.2% comparator): 20.0%; RR of hospital admissions [17]: 0.71
CCC(CC)COC(=O)[C@H](C)N[P@](=O)(OC[C@H]1O[C@@](C#N)(c2ccc3c(N)ncnn23)[C@H](O)[C@@H]1O)Oc1ccccc1 [Remdesivir]																					IC90 [18]: 1280 nM; IC90 [19]: 3000 nM

From publication PMC9224751 (International Journal of Molecular Sciences, 2022)
